# Results published in patent US20150209354A1, “CASEIN KINASE 1 INHIBITORS FOR THE TREATMENT OF B-CELL CHRONIC LYMPHOCYTIC|LEUKEMIA” (MASARYKOVA UNIVERZITA, priority 2012, published 2015).
# Entries after “also recorded” stand apart in the source; their conditions may differ.
# Tests used:
# primary CLL cells [1] = assay: Rate of apoptosis of primary CLL cells by mitochondrial membrane potential (TMRE/calcein flow cytometry); assay type: cell-based, human; settings: 100 μM D4476, 20 hours pre-treatment; TMRE and calcein staining; vs DMSO
# Procedure: (§1) FIG. 3: CK1 controls the migration of CLL cells in vivo. (A) Layout of the experiment: CLL cells were obtained by purification from the samples of fresh blood from patients, stimulated and stained in vitro using green calcein. They were subsequently intraperitoneally injected to NSG mice. After 24 hours the murine tissues were examined for the presence of calcein-positive CLL cells using flow-cytometry (refer to the G1 cut-out in the typical dot plot distribution). (B) The rate of apoptosis in primary CLL cells after adding DMSO/D4476 (CK1 inh. I) was determined by the analysis of membrane potential of mitochondria using flow-cytometry while using tetramethylrhodamine ethyl ester (TMRE) stained with green calcein dye. […] The charts show the ratio of the CLL cells (the quantity of positive cells/total quantity of cells in the organ) treated by DMSO or D4476 (CK1 inh. I) that were obtained from the spleen (Ci), liver (Cii), and bone marrow (Ciii) of transplanted mice. […]
# Freshly isolated human CLL lymphocytes (25×10^6 from the patient) were pre-treated for 20 hours with a CK1 inhibitor (100 μM, D4476, Calbiochem), and dimethylsulfoxide (DMSO, Sigma-Aldrich) as control. […] Samples of spleen, liver, and femoral bone marrow of mice were taken 24 hours after the injection and analyzed. Migration of calcein-positive CLL cells to these tissues was determined by FACS analysis (FACScalibur). […]
# MEC1 cells [2] = assay: Transwell migration of MEC1 cells to chemokines CCL19 and CCL21; assay type: cell-based, human; settings: D4476 100 μM overnight; CCL19 and CCL21 200 ng/ml; vs DMSO control
# Procedure: FIG. 1: Migration of MEC1 cells which represents an in-vitro CLL model was investigated in the presence of chemokines CCL19 and CCL21 (200 ng/ml) using Transwell migration chamber. The rate of migration is expressed as a migration index. The MEC1 migration triggered by the chemokines CCL21 and CCL19 is blocked by CK1 inhibitors—D4476 (CK1 inh. I; 100 μM) and PF670462 (CK1 inh. II; 50 μM). The values in the FIGS. 1A and 1B represent the average and the standard error. Statistical significance was tested using One-way ANOVA and Tukey post-hoc test (*p<0.05, **p<0.01, ***p<0.001).
# In this example, the MEC1 cell line was used, which is a well-defined cell line obtained from a CLL patient in a pro-lymphocytic transformation. The MEC1 line is used as a transplantation model of CLL. […]
# Into the upper insert of HTS Transwell® 96-well plates (Corning Incorporated, Mexico) with polycarbonate membranes with the pore size of 5.0 μm, 0.5×10^6 MEC1 cells were seeded. […] The migration to chemokine was then analyzed using the Coulter Counter instrument (model FN, Coulter Electronics, Fla., USA). The migration index was calculated as the number of cells (treated or non-treated) migrating to the chemokine divided by the number of cells migrating only to the control medium.
# MEC1 cells [3] = assay: Chemokine-controlled transendothelial invasion of MEC1 cells through HUVEC layer (Transwell); assay type: cell-based, human; settings: D4476 100 μM overnight, HUVEC-covered Transwell
# Procedure: FIG. 2: Transendothelial invasiveness of the MEC1 cells was tested in the Transwell migration chamber in an arrangement where the upper chamber was covered with one layer of HUVEC endothelial cells. The rate of invasiveness (determined as the migration index) of the MEC1 cells was analyzed in the presence of the chemokine CCL19, Wnt5a, or in combination of both substances. The positive effect of CCL19 to the transendothelial migration of MEC1 was inhibited by addition of D4476 (CK1 inh. I). Statistical significance was tested using One-way ANOVA test and Tukey post-hoc test (***p<0.001). Each experiment was independently repeated three-times.
# In the complex environment of the human body, cells react to the attractants and have to pass through extra-cellular matrix or endothelial barrier, which is a process known as invasion. […]
# Into the upper insert of HTS Transwell® 96-well plates (Corning Incorporated, Mexico) with polycarbonate membranes with the pore size of 5.0 μm, covered with HUVEC (human umbilical vein endothelial cells monolayer), 0.5×10^6 MEC1 cells were seeded. […] The migration to chemokine was then analyzed using the Coulter Counter instrument (model FN, Coulter Electronics, Fla., USA). The migration index was calculated as the number of cells (treated or non-treated) migrating to the chemokine divided by the number of cells migrating only to the control medium.
# primary CLL cells [4] = assay: Migration of pre-treated primary CLL cells into tissues of transplanted NSG mice (FACS of calcein-positive cells); assay type: in vivo; settings: cells pre-treated 20 hours with 100 μM D4476; intraperitoneal injection; tissues analysed after 24 hours; vs DMSO
# Procedure: as §1
# Freshly isolated human CLL lymphocytes (25×10^6 from the patient) were pre-treated for 20 hours with a CK1 inhibitor (100 μM, D4476, Calbiochem), and dimethylsulfoxide (DMSO, Sigma-Aldrich) as control. […] Samples of spleen, liver, and femoral bone marrow of mice were taken 24 hours after the injection and analyzed. Migration of calcein-positive CLL cells to these tissues was determined by FACS analysis (FACScalibur).
smiles,measurement,setting,value
NC(=O)c1ccc(-c2nc(-c3ccc4c(c3)OCCO4)c(-c3ccccn3)[nH]2)cc1 [D4476],rate of apoptosis in primary CLL cells,primary CLL cells [1],does not alter the rate of apoptosis; also recorded: without an increase of cell apoptosis being detected
same,MEC1 migration (migration index) triggered by the chemokines CCL21 and CCL19,MEC1 cells [2],blocked
same,"CCL19-induced transendothelial migration (invasiveness, migration index) of MEC1 cells",MEC1 cells [3],inhibited
same,"migration of CLL cells to the spleen, liver and bone marrow",primary CLL cells [4],reduced
